{"source": "patent US5326780A", "about": "“Imidazole derivatives having anti-HIV activity” (priority 1992, dated 1994)", "type_in_all_cases": "cell-based", "key": {"[1]": {"test_system": "HIV (HTLV-IIIB strain)", "test": "Infection inhibitory test: anti-HIV activity, MT-4 cells infected with HIV, MTT", "details": "Human immunodeficiency virus 1, IIIB, MT4, 120 h", "procedure": "Anti-HIV activity and cytotoxicity are tested in the following manners.\n(§1) (1) A human T cell MOLT-4 clone 8, a strain continuously infected with HIV (HTLV-IIIB strain), was incubated in RPMI-1640 medium containing 10% bovine fetus serum and the supernatant was isolated by filtration. After the determination of virus titer, the supernatant was stored at -80° C. A compound to be tested was diluted with the same medium to a given concentration and poured into 96-well microtiter plates by 100 μl/well. To the well is added 50 μl (2.5×10^4 cells) MT-4 cell suspensions, followed by the addition of 50 μl [600 pfu (plaque forming unit)] HIV-containing supernatant previously diluted with the same medium.\n(§2) (2) After 5-day-incubation at 37° C. in a carbon dioxide incubator, 30 μl MTT {3-(4,5-diemthylthiazol-2-yl)-2,5-diphenyltetrazolium bromide), 5 mg/ml in PBS} was added to each well, and the incubation was continued for another 1 hour, during which surviving cells reduce MTT to precipitate folmazan.\n(§3) The resultant folmazan was eluted by replacing 150 μl supernatant of a culture in each well by 150 μl solution comprising 10% triton X - 100 and isopropanol containing 0.4 v/v % HCl and shaking by means of a plate mixer. The resultant folmazan was assayed at 0D 540 nm, and the result was evaluated by comparison with that obtained in a control test.\nIC50 is defined as a concentration of the compound (I) that gives a 50% inhibition against vital cytotoxicity."}, "[2]": {"test_system": "MT-4 cell", "test": "Cytotoxicity, MT-4 cells without virus, MTT", "details": "50% cytotoxicity; MT-4 cells without virus, 5-day incubation, MTT", "procedure": "as §1, §2, §3\n(§4) Cytotoxicity of a compound (I) was evaluated in a similar manner as described in 1 above except that 50 μl of the same medium is added to each well in place of the HIV-containing supernatant (viral solurtion).\n(§5) CC50 is defiend as a concentration of the compound (I) that gives 50% cytotoxicity."}, "[3]": {"test": "Cytotoxicity, MT-4 cells without virus, MTT", "details": "human", "procedure": "as §1, §2, §3, §4, §5"}, "[4]": {"details": "50% inhibition of viral cytotoxicity, MT-4 cells, 5-day incubation at 37 °C, MTT, read-out: IC50"}}, "note": "Where two headings read alike, the source gives them in different places."}
{"compound": "Cc1cn([C@H]2C[C@H](N=[N+]=[N-])[C@@H](CO)O2)c(=O)[nH]c1=O", "note": "[AZT, azidodeoxythymidine, reference compound]", "values": [{"measurement": "IC50", "setting": "[1]", "value": "0.005 to 0.01", "unit": "µg/mL"}, {"measurement": "CC50", "setting": "[2]", "value": 25, "unit": "µg/mL"}]}
{"compound": "CCc1nc(C)n(COCc2ccccc2)c1Sc1ccccc1", "note": "[Compound I-1, 1-benzyloxymethyl-4-ethyl-2-methyl-5-phenylthioimidazole]", "values": [{"measurement": "IC50", "setting": "[1]; [4]", "value": "0.03 to 0.06", "unit": "µg/mL"}]}
{"compound": "CCc1ncn(COCc2ccccc2)c1Sc1ccccc1", "note": "[Compound I-4, 1-benzyloxymethyl-4-ethyl-5-phenylthioimidazole]", "values": [{"measurement": "IC50", "setting": "[1]; [4]", "value": "0.13 to 0.25", "unit": "µg/mL"}, {"measurement": "CC50 at 120 h", "setting": "[3]; mt-4 cells", "value": "12.5 to 25", "unit": "µg/mL"}]}
{"compound": "c1ccc(COCn2cncc2Sc2ccccc2)cc1", "note": "[Compound I-5, 1-benzyloxymethyl-5-phenylthioimidazoe nitrate]", "values": [{"measurement": "IC50", "setting": "[1]; [4]", "value": "0.13 to 0.25", "unit": "µg/mL"}, {"measurement": "CC50 at 120 h", "setting": "[3]; mt-4 cells", "value": "12.5 to 25", "unit": "µg/mL"}]}
{"compound": "CCCc1ncn(COCc2ccccc2)c1Sc1ccccc1", "note": "[Compound I-9]", "values": [{"measurement": "CC50 at 120 h", "setting": "[3]; mt-4 cells", "value": "12.5 to 25", "unit": "µg/mL"}]}
{"compound": "CCc1nc(Br)n(COCc2ccccc2)c1Sc1ccccc1", "note": "[Compound I-12]", "values": [{"measurement": "IC50", "setting": "[1]; [4]", "value": "0.06 to 0.13", "unit": "µg/mL"}, {"measurement": "CC50 at 120 h", "setting": "[3]; mt-4 cells", "value": "12.5 to 25", "unit": "µg/mL"}]}
{"compound": "CCCc1nc(Br)n(COCc2ccccc2)c1Sc1ccccc1", "note": "[Compound I-13]", "values": [{"measurement": "CC50 at 120 h", "setting": "[3]; mt-4 cells", "value": "12.5 to 25", "unit": "µg/mL"}]}
{"compound": "CCc1nc(C)n(COCc2ccccc2)c1Sc1cc(C)cc(C)c1", "note": "[Compound I-14]", "values": [{"measurement": "IC50", "setting": "[1]; [4]", "value": "0.016 to 0.032", "unit": "µg/mL"}, {"measurement": "CC50 at 120 h", "setting": "[3]; mt-4 cells", "value": "10 to 20", "unit": "µg/mL"}]}
{"compound": "CCOCn1c(C)nc(CC)c1Sc1cc(C)cc(C)c1", "note": "[Compound I-15]", "values": [{"measurement": "IC50", "setting": "[1]; [4]", "value": "0.063 to 0.12", "unit": "µg/mL"}, {"measurement": "CC50 at 120 h", "setting": "[3]; mt-4 cells", "value": "10 to 20", "unit": "µg/mL"}]}
{"compound": "Cc1cc(C)cc(Sc2c(C(C)C)nc(C)n2COCc2ccccc2)c1", "note": "[Compound I-16]", "values": [{"measurement": "IC50", "setting": "[1]; [4]", "value": "0.016 to 0.031", "unit": "µg/mL"}]}
{"compound": "Cc1nc(C(C)C)c(Sc2ccccc2)n1COCc1ccccc1", "note": "[Compound I-17]", "values": [{"measurement": "IC50", "setting": "[1]; [4]", "value": 0.016, "unit": "µg/mL"}]}
{"compound": "CCOCn1c(C)nc(C(C)C)c1Sc1ccccc1", "note": "[Compound I-18]", "values": [{"measurement": "IC50", "setting": "[1]; [4]", "value": 0.016, "unit": "µg/mL"}, {"measurement": "CC50 at 120 h", "setting": "[3]; mt-4 cells", "value": "25 to 50", "unit": "µg/mL"}]}
{"compound": "CCc1nc(C)n(COCCO)c1Sc1cc(C)cc(C)c1", "note": "[Compound I-29, 5-(3,5-Dimethylphenylthio)-4-ethyl-1-[(2-hydroxyethoxy)-methyl]-2-methylimidazole]", "values": [{"measurement": "IC50", "setting": "[1]; [4]", "value": "0.13 to 0.25", "unit": "µg/mL"}, {"measurement": "CC50 at 120 h", "setting": "[3]; mt-4 cells", "value": "25 to 50", "unit": "µg/mL"}]}
{"compound": "Cc1nc(C(C)C)c(Cc2ccccc2)n1COCc1ccccc1", "note": "[Compound I-42, 5-Benzyl-1-benzyloxymethyl-4-isopropyl-2-methylimidazole]", "values": [{"measurement": "IC50", "setting": "[1]; [4]", "value": 0.016, "unit": "µg/mL"}, {"measurement": "CC50 at 120 h", "setting": "[3]; mt-4 cells", "value": "3.1 to 6.25", "unit": "µg/mL"}]}
{"compound": "Cc1cc(C)cc(Cc2c(C(C)C)nc(C)n2COCc2ccccc2)c1", "note": "[Compound I-50]", "values": [{"measurement": "IC50", "setting": "[1]; [4]", "value": 0.016, "unit": "µg/mL"}, {"measurement": "CC50 at 120 h", "setting": "[3]; mt-4 cells", "value": "6.25 to 12.5", "unit": "µg/mL"}]}
{"compound": "CCOCn1c(C)nc(C(C)C)c1Cc1cccnc1", "note": "[Compound I-58]", "values": [{"measurement": "IC50", "setting": "[1]; [4]", "value": 0.5, "unit": "µg/mL"}, {"measurement": "CC50 at 120 h", "setting": "[3]; mt-4 cells", "value": "> 100", "unit": "µg/mL"}]}
{"compound": "CCOCn1c(C)nc(C(C)C)c1Cc1cc(Cl)cc(Cl)c1", "note": "[Compound I-67]", "values": [{"measurement": "IC50", "setting": "[1]; [4]", "value": 0.005, "unit": "µg/mL"}, {"measurement": "CC50 at 120 h", "setting": "[3]; mt-4 cells", "value": "6.25 to 12.5", "unit": "µg/mL"}]}
{"compound": "Cc1nc(C(C)C)c(Cc2cc(F)cc(F)c2)n1COCc1ccccc1", "note": "[Compound I-69]", "values": [{"measurement": "IC50", "setting": "[1]; [4]", "value": 0.003, "unit": "µg/mL"}, {"measurement": "CC50 at 120 h", "setting": "[3]; mt-4 cells", "value": "6.25 to 12.5", "unit": "µg/mL"}]}
{"compound": "CCOCn1c(C)nc(Cc2cc(Cl)cc(Cl)c2)c1C(C)C", "note": "[Compound I-90]", "values": [{"measurement": "IC50", "setting": "[1]; [4]", "value": "0.5 to 1", "unit": "µg/mL"}, {"measurement": "CC50 at 120 h", "setting": "[3]; mt-4 cells", "value": "1 to 10", "unit": "µg/mL"}]}
{"compound": "Cc1nc(Cc2cc(Cl)cc(Cl)c2)c(C(C)C)n1COCc1ccccc1", "note": "[Compound I-91]", "values": [{"measurement": "IC50", "setting": "[1]; [4]", "value": "0.5 to 1", "unit": "µg/mL"}, {"measurement": "CC50 at 120 h", "setting": "[3]; mt-4 cells", "value": "10 to 100", "unit": "µg/mL"}]}
{"compound": "Cc1nc(Cc2cc(F)cc(F)c2)c(C(C)C)n1COCc1ccccc1", "note": "[Compound I-92]", "values": [{"measurement": "IC50", "setting": "[1]; [4]", "value": 0.25, "unit": "µg/mL"}, {"measurement": "CC50 at 120 h", "setting": "[3]; mt-4 cells", "value": "6.25 to 12.5", "unit": "µg/mL"}]}
{"compound": "CCOCn1c(C)nc(Cc2cc(F)cc(F)c2)c1C(C)C", "note": "[Compound I-93]", "values": [{"measurement": "IC50", "setting": "[1]; [4]", "value": 0.06, "unit": "µg/mL"}, {"measurement": "CC50 at 120 h", "setting": "[3]; mt-4 cells", "value": "12.5 to 25", "unit": "µg/mL"}]}
{"compound": "CC(C)=CCN1Cc2cc(Cl)cc3[nH]c(=S)n(c23)C[C@@H]1C", "note": "[TIBO (R-82913), reference compound]", "values": [{"measurement": "IC50", "setting": "[1]; [4]", "value": "0.13 to 0.25", "unit": "µg/mL"}, {"measurement": "CC50 at 120 h", "setting": "[3]; 50% cytotoxicity, MT-4 cells without virus, 5-day incubation, MTT, read-out: CC50", "value": "12.5 to 25", "unit": "µg/mL"}]}
